Values joined by “and” are separate entries in the source; they are usually repeats but may differ in a detail not shown here. Identical values can stand only once.
How the values were obtained:
C57BL/6 mice = assay: 5FU chemotherapy model, hematologic recovery; format: in vivo, mouse
Experimental: Ten-week-old female C57BL/6 mice received a single tail vein injection of 250 mg/kg 5FU in 100 μL PBS. Two hours post 5FU injection, mice were administered daily subcutaneous injections of 5 mg/kg (100 μg per mouse) DJ001 or vehicle in a volume of 100 μL for 8 days. DJ001 injections were prepared in PBS, 50% PEG-400, and 10% DMSO. Corresponding vehicle injections contained PBS, 50% PEG-400, and 10% DMSO. Retro-orbital blood was collected on day + 8, + 11, and + 14 after 5FU treatment with capillary pipettes (Fisher Scientific). Complete blood counts were measured using a Hemavet 950 instrument (Drew Scientific).

BM KSL cells [1] = assay: Gene expression of pro- and anti-apoptotic genes in irradiated BM KSL cells (qPCR); format: cell-based, mouse; set-up: key to Figure 3g: gene expression, Bax / Figure 3g: gene expression, Bcl-2 / Figure 3g: gene expression, Bcl-xL / Figure 3g: gene expression, Bim / Figure 3g: gene expression, Mcl1: fold change, 2^-ΔΔCt vs media-treated non-irradiated KSL, Gapdh-normalized
Source text: For all studies, RNA was isolated using the Qiagen RNeasy micro kit (Qiagen). RNA was reverse transcribed using the High-Capacity cDNA Reverse Transcription Kit (ThermoFisher Scientific) and was then used for quantitative PCR with SYBR Select Master Mix (Life Technologies). Values were normalized to housekeeping gene Gapdh/GAPDH and given as ΔΔCt values normalized to media-treated, non-irradiated BM KSL cells (2(−ΔΔC(T)) method)[67].

BM KSL cells [2] = assay: Annexin V/7AAD apoptosis assay of BM KSL cells from mice 24 h post 500 cGy TBI; format: in vivo, mouse
Experimental: Eight- to ten-week-old female C57BL/6 mice were irradiated with 500 cGy TBI followed by subcutaneous injections of 5 mg/kg DJ001 or vehicle, or 5 mg/kg DJ001 plus 40 mg/kg EHT1864. Twenty four hours after irradiation, mice were killed to collect BM cells for Annexin V apoptosis analysis. BM cells were stained with APC-Cy7-conjugated anti-mouse Sca1 (BD Biosciences, #560654, 1:100), PE-conjugated anti-ckit (BD Biosciences, #553355, 1:100), and V450 lineage cocktail (BD Biosciences, #561301, 1:10) antibodies for 30 min at 4 °C. Cells were then resuspended in 1× Annexin V binding buffer and then stained with FITC-conjugated anti-Annexin V antibody (BD Biosciences, #556547,1:50) and 7AAD antibody (BD Biosciences, #559925, 1:40)[68]. For in vitro human BM cell apoptosis assays, isolated human BM CD34^+ cells were plated into 96-well plates and then irradiated with 300 cGy. Immediately after irradiation, cells were treated with 5 μg/mL DJ001 or vehicle for 24 h and then collected for Annexin V cell apoptosis analysis. For cell cycle analysis, BM KSL cells were irradiated at 300 cGy and then treated with 1 μg/mL DJ001 or vehicle for 36 h. Subsequently, cells were resuspended in 200 μL of PBS, fixed with 1 mL of ice-cold fixation solution (0.25% Saponin, 2.5% PFA, 2% fetal calf serum (FCS) in PBS), and incubated for 30 min on ice. Cells were washed in Saponin buffer (0.25% Saponin, 2% FCS in PBS) and resuspended in 200 μL of Saponin buffer containing 20 μL of FITC-conjugated anti-Ki67 antibody (BD Biosciences, #556026, 1:10) and 1 μL of RNase (Qiagen, #19101, 100 mg/mL). After 30 min of incubation, cells were washed in Saponin buffer and resuspended for flow analysis in 200 μL of Saponin buffer containing 5 μL 7AAD (BD Biosciences, #559925, 1:40).

BM KSL cells [3] = assay: CFC assay from 300 cGy-irradiated BM KSL cells, 3 day culture; format: cell-based, mouse
Experimental: CFC assays (colony-forming unit-granulocyte monocyte), burst-forming unit-erythroid, and CFU-GEMM were performed using MethoCult GF M3434 (Stemcell Technologies)[6]. […] Recombinant mouse SCF, Flt3 ligand, and TPO were purchased from R&D Systems. For competitive repopulation assays, BM cells were isolated from donor 10–12-week-old female CD45.2^+ mice. Recipient 10-week-old female CD45.1^+ B6.SJL mice were irradiated with 950 cGy TBI using a Cs137 irradiator and donor BM cells were administered via tail vein injection along with a competing dose of 1 × 10^5 non-irradiated host BM cells. Multilineage donor hematopoietic cell engraftment was measured in the PB by flow cytometry.

[4] = molecular target: T1, RPTPμ (Receptor Protein Tyrosine Phosphatase Mu) (Homo sapiens, UniProt P28827); assay: PhosphataseProfiler screen: RPTPμ; format: biochemical; conditions: replicates
T1 construct: purchased Eurofins Pharma Discovery Services UK
Experimental: (§1) Compound DJ001 was evaluated in a PhosphataseProfiler™ screen at 10 μM and 1 μM (2.7 μg/mL and 0.27 μg/mL) concentrations at Eurofins Pharma Discovery Services UK (Study number UK022-0004033) against a panel of 21 Phosphatases. In each experiment, the respective reference antagonist/agonist was tested directly with DJ001 and the data were compared with historical values determined at Eurofins. DJ001 compound inhibition was calculated as percentage inhibition of the enzymatic activity compared with control.

[5] = molecular target: T2, LMPTP-A (Low Molecular Weight Protein Tyrosine Phosphatase A) (Homo sapiens, UniProt P24666); assay: PhosphataseProfiler screen: LMPTP-A; format: biochemical; conditions: replicates
T2 construct: purchased Eurofins Pharma Discovery Services UK
Experimental: as §1

[6] = day +8 following 250 mg/kg 5FU, 5 mg/kg DJ001 SQ daily
[7] = day +11 following 250 mg/kg 5FU, 5 mg/kg DJ001 SQ daily
[8] = day +14 following 250 mg/kg 5FU, 5 mg/kg DJ001 SQ daily
[9] = BM KSL cells, 12 h post 300 cGy
[10] = irradiated BM KSL cells, qPCR, replicates
[11] = BM KSL cells, 300 cGy, 3 days in TSF media + DJ001

T2 sequence (P24666 whole entry, species assumed): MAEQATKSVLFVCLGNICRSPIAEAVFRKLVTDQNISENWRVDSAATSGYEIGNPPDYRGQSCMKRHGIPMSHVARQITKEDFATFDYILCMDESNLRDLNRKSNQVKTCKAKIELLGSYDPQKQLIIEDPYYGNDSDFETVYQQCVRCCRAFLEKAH
T1 sequence (P28827 21-1452, species assumed): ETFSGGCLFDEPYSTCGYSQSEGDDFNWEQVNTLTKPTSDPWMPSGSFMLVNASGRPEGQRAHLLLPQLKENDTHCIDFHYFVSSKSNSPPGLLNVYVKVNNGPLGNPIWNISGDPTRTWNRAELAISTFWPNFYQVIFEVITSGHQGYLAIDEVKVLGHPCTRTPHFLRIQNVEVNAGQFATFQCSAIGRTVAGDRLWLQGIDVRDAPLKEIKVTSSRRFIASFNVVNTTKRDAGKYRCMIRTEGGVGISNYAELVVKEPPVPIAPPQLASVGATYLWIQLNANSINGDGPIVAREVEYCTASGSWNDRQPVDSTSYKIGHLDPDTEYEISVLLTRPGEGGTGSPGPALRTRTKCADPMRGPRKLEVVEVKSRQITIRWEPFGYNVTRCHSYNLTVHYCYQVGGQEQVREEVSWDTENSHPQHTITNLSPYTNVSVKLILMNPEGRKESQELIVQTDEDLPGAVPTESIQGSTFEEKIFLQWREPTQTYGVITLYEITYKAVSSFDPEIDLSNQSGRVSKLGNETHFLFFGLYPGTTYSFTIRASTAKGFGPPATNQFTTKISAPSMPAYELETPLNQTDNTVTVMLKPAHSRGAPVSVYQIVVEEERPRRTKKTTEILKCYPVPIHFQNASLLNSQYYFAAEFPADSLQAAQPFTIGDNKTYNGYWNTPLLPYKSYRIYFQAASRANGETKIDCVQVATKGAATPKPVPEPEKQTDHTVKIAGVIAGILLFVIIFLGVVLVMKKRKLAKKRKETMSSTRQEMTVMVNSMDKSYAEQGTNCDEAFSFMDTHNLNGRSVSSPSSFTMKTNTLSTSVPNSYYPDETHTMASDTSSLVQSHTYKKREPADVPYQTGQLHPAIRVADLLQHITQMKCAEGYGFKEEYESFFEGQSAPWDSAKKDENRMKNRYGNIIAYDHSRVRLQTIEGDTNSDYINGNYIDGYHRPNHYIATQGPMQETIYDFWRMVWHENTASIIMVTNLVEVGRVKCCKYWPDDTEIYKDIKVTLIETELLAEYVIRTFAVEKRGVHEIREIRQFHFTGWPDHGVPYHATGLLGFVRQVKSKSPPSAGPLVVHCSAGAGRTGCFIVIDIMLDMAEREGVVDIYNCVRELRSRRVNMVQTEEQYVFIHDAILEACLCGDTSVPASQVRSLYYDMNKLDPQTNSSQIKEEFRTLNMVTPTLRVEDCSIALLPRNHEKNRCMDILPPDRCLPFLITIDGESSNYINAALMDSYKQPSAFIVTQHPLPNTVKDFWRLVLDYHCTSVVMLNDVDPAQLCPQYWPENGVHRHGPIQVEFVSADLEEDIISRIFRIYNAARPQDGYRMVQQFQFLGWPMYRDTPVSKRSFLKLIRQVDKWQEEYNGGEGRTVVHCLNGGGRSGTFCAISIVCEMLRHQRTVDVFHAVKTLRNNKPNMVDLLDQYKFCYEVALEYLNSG

**Q.** With `O=C(/C=C\Nc1cccc([N+](=O)[O-])c1)c1ccccc1` [DJ001, (Z)-3-((3-nitrophenyl)amino)-1-phenylprop-2-en-1-one] as the molecule, how does the “PB NEU counts per mouse (Figure 2i right panel)” value (“PB NEU counts per mouse” below) (C57BL/6 mice; day 0 (pre-5FU)) read?
**A.** Its value is 0.64 and 0.92 and 0.54 and 0.52.

**Q.** And the “PB WBCs per mouse (Figure 2i left panel)” value (C57BL/6 mice; day 0 (pre-5FU))?
**A.** Its value is 7.24 and 8.98 and 6.9 and 7.26.

**Q.** And the “PB NEU counts per mouse” value (C57BL/6 mice; [6])?
**A.** The value was 0.01 (2×) and 0.02 (4×) and 0.03.

**Q.** And the “PB WBCs per mouse (Figure 2i left panel)” value (C57BL/6 mice; [6])?
**A.** Its value is 0.88 and 0.82 and 0.9 and 1 and 0.86 and 0.8 and 1.44.

**Q.** And the “PB NEU counts per mouse” value (C57BL/6 mice; [7])?
**A.** Its value is 0.08 and 0.14 and 0.11 and 0.12 and 0.07 (2×) and 0.54.

**Q.** What about the “PB WBCs per mouse (Figure 2i left panel)” value (C57BL/6 mice; [7]) of the same molecule?
**A.** The value was 0.78 and 3.32 and 1.78 and 2.76 and 1.44 and 3.6 and 2.12.

**Q.** What about the “PB WBCs and neutrophils vs 5FU control” value (C57BL/6 mice; day +14) of the same molecule?
**A.** The value was “significantly increased PB WBCs and neutrophils”.

**Q.** And the “PB NEU counts per mouse” value (C57BL/6 mice; [8])?
**A.** The value was 4.15 and 1.27 and 0.57 and 0.4 and 0.82 and 1.88 and 2.76.

**Q.** And the “PB WBCs per mouse (Figure 2i left panel)” value (C57BL/6 mice; [8])?
**A.** The value was 13.36 and 5.12 and 4.72 and 9.58 and 8.92 and 11.92 and 17.98.

**Q.** And the “expression of Bim, Bax, Puma, Bcl2” value (BM KSL cells [1]; [9])?
**A.** The value was “no effect”.

**Q.** And the “expression of Mcl-1 and Bcl2l1” value (BM KSL cells [1]; [9])?
**A.** The value was “increased the expression”.

**Q.** And the “Figure 3g: gene expression, Bax” value (BM KSL cells [1]; [10])?
**A.** Its value is 2.95 and 3.78 and 1.75.

**Q.** And the “Figure 3g: gene expression, Bcl-2” value (BM KSL cells [1]; [10])?
**A.** The value was 1.73 and 1.94 and 1.28 and 1.59 and 1.76 and 1.06.

**Q.** What about the “Figure 3g: gene expression, Bcl-xL” value (BM KSL cells [1]; [10]) of the same molecule?
**A.** The value was 4.94 and 3.23 and 6.87 and 4.82 and 3.79 and 5.97.

**Q.** And the “Figure 3g: gene expression, Bim” value (BM KSL cells [1]; [10])?
**A.** Its value is 2.95 and 3.78 and 2.75.

**Q.** What about the “Figure 3g: gene expression, Mcl1” value (BM KSL cells [1]; [10]) of the same molecule?
**A.** The value was 1.95 and 1.78 and 2.55 and 0.81 and 1.62 and 1.96.

**Q.** And the “Figure 3g: gene expression, Puma” value (BM KSL cells [1]; [10])?
**A.** The value was 2.95 and 1.78 and 1.75.

**Q.** What about the “percentage of apoptotic BM KSL cells vs vehicle” value (BM KSL cells [2]; 24 h following 500 cGy TBI) of the same molecule?
**A.** Its value is “significantly decreased the percentage of apoptotic BM KSL cells”.

**Q.** What about the “Figure 3e: Annexin V/7AAD apoptosis of BM KSL cells” value (BM KSL cells [2]; 24 h post 500 cGy TBI, individual mice) of the same molecule?
**A.** The value was 14.6 and 11.3 and 12.5 and 12.9 and 14.7 and 10.4 and 14.5 and 15.5 and 16.7.

**Q.** What about the “recovery of BM CFCs and CFU-GEMM colonies vs control” value (BM KSL cells [3]; 300 cGy, 1 μg/mL DJ001, 3 days) of the same molecule?
**A.** Its value is “increased recovery of BM CFCs”.

**Q.** What about the “BFU-E, numbers per replicate” value (BM KSL cells [3]; [11]) of the same molecule?
**A.** The value was 2 (3×) and 4 (2×) and 3 (5×) and 1 (2×).

**Q.** And the “GEMM, numbers per replicate” value (BM KSL cells [3]; [11])?
**A.** The value was 5 (3×) and 3 (2×) and 4 (2×) and 6 (5×).

**Q.** What about the CFU-GEMM (BM KSL cells [3]; Supplementary Figure 7g) of the same molecule?
**A.** Its CFU-GEMM is 7.

**Q.** And the CFU-GEMM (BM KSL cells [3]; Supplementary Figure 7d)?
**A.** The CFU-GEMM was 7.

**Q.** What about the “Supplementary Figure 1: RPTP activity” value ([4]; 2.7 μg/mL DJ001) of the same molecule?
**A.** The value was 83 and 98 and 86.

**Q.** And the “Supplementary Figure 1: RPTP activity” value ([4]; 0.27 g/mL DJ001)?
**A.** Its value is 92 and 99 and 95.

**Q.** What about the “Supplementary Figure 1: LMPTP-A activity” value ([5]; 0.27 g/mL DJ001) of the same molecule?
**A.** The value was 100 and 90 and 93.

**Q.** And the “Supplementary Figure 1: LMPTP-A activity” value ([5]; 2.7 g/mL DJ001)?
**A.** Its value is 78 and 84 and 89.
